Series [1] addresses T1, AR T878A mutant protein (Homo sapiens, UniProt P10275, T878A).
T1 sequence (P10275 1-920 T878A): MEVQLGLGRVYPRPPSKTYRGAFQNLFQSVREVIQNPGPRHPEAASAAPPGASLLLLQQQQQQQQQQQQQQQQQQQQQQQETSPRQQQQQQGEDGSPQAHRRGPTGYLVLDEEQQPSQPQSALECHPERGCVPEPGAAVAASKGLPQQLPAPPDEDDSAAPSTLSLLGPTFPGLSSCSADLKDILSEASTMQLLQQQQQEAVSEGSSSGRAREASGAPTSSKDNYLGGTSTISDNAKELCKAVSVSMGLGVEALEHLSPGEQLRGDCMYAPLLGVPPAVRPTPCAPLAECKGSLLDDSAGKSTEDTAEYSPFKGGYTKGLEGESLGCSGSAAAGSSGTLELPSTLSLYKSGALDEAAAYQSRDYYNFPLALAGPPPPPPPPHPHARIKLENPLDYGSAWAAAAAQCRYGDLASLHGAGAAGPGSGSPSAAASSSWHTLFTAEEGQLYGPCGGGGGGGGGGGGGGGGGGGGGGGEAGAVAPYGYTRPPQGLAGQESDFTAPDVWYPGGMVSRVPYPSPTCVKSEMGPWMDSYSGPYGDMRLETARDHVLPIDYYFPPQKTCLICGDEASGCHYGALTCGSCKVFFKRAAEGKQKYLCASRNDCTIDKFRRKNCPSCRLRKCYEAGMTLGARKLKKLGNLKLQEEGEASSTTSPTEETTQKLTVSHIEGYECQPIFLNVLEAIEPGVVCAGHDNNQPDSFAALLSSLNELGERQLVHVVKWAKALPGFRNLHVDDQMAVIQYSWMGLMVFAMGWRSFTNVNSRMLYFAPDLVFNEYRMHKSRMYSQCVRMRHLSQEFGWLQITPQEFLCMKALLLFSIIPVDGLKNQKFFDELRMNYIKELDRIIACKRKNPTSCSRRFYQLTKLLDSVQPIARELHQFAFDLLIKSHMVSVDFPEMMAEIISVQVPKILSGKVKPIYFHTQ

Series [2] is described as follows: Tissue distribution studies of ARD-2585 in mice bearing VCaP tumors. The series is classed as in vivo. The following applies: male, SCID, mouse, po, 20 mg/kg.
For series [3], the target named is T2, AR protein (Homo sapiens, UniProt P10275).
T2 sequence (P10275 1-920): T1 sequence (P10275 1-920 T878A) with A878T
The following applies: single oral administration 20 mg/kg, 6 and 24 h time-points, Western blotting. (In general: Immunoblotting shows a protein as a band on a membrane.)

Series [4] in a line: Pharmacokinetics in mice. The class given is in vivo. The following applies: male, mouse, in vivo.
Series [5] has as its target T2, AR protein. Put plainly: AR degradation in VCaP cell line. The class given is cell-based.
The target of series [6] is T3, AR double mutations (L702H and T878A) (Homo sapiens, UniProt P10275, L702H/T878A).
T3 sequence (P10275 1-920 L702H/T878A): T1 sequence (P10275 1-920 T878A) with L702H
The following applies: MDA-PCa-2b, 24 h, Figure 7.

In series [7] the test system is AR protein (22Rvl cell line with F876L mutation). In words: AR degradation in 22Rv1 cell line. The following applies: 22Rv1, 24 h. The class given is cell-based, human.

Consider one compound from PMC8855934 (Journal of medicinal chemistry, 2021).

Substitutions are numbered along the chain they refer to.

For `CN(c1ccc(C#N)c(Cl)c1)[C@H]1CC[C@H](NC(=O)c2ccc(N3CCN(C4CN(c5ccc6c(c5)C(=O)N(C5CCC(=O)NC5=O)C6=O)C4)CC3)cc2)CC1` (stereo partly drawn) [Compound 43, N-(1R,4R)-4-(((3-Chloro-4-cyanophenyl)(methyl)amino)-cyclohexyl)-4-(4-(1-(2-(2,6-dioxopiperidin-3-yl)-1,3-dioxoisoindolin-5-yl)azetidin-3-yl)piperazin-1-yl)benzamide], the “Dmax, AR degradation in LNCaP cell line” value in series [1] (LNCaP cell line (AR T878A), Western blotting, listed as ARD-2585) is more than 98%. For the same compound, the “reduction of AR protein (mechanism study)” value was “effectively reduces” in series [1] (LNCaP cells, 100 nM, 3 h treatment) and “effectively reduces” in series [5] (VCaP cells, 100 nM, 3 h treatment). The “reduction of AR protein level (degradation kinetics)” value in series [1] (LNCaP, 1 h) is on record as “effectively reduce”; in series [5] (VCaP, 1 h), “effectively reduce”. In addition, the concentration at 6 h in series [2] (plasma) stood at 134 ± 98 ng/mL. Also, the figures for the concentration at 24 h in series [2] (plasma) and in series [2] (prostate) were 214 ± 78 ng/mL and 109 ± 23 ng/g, respectively. The “reduction of AR protein level in VCaP tumor tissue” value in series [3] is listed as “effective”. For the same compound, in series [4] (iv, 2 mg/kg), the Vd lay within 1.8 to 2.1 L/kg. In series [4] (iv, 2 mg/kg), this compound yielded a clearance of 3.33 to 5 mL/min/kg. In addition, the half-life in series [4] (iv, 2 mg/kg) lay in the range of 5.5 to 7.5 h. The AUC(0-t) in series [4] (po, 3 mg/kg) is 8640 ng·h/mL. Also, the “Dmax, AR degradation in VCaP cell line” value in series [5] (VCaP cell line, 24 h treatment, Western blotting, listed as ARD-2585) is recorded as more than 98%. Also, the “concentration as low as which AR protein level is reduced by >80%” value in series [6] was 1 nM. In series [7], the “Dmax, AR degradation in 22Rv1 cell line” value is more than 95%.

The Vd is the apparent volume that relates the amount in the body to the concentration in plasma or blood. High values mean wide distribution into tissue, low ones little distribution into tissue. A word on the clearance: it is the rate of elimination divided by the concentration. Higher therefore signals efficient removal. As a reminder, the half-life is how long it takes for the measured level to halve. High values mean slow loss, low ones fast loss. Usually AUC(0-t) stands for exposure summed from dosing to a finite time, without extrapolation to infinity.
